{"source": "paper PMC9345997", "about": "“Determination of oligosaccharide product distributions of PL7 alginate lyases by their structural elements” (Communications Biology, 2022)", "target": "T1, PyAly (Pyropia yezoensis, UniProt D2KX85, H125A/Y223A)", "T1 construct": "single-domain PL7 lyase; E. coli BL21(DE3), pET32a; tag cleaved; residues built 27-241", "T1 sequence (D2KX85 entry or part of it H125A/Y223A)": "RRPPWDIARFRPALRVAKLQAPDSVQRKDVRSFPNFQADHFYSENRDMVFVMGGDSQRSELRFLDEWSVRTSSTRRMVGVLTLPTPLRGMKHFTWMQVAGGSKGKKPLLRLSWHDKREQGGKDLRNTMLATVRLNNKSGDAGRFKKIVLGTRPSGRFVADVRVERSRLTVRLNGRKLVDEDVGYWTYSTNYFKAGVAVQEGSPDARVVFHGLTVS", "test": "X-ray crystal structure, […] A", "type": "binding", "settings": "cocrystallized at 10:1 molar ratio; complete M5 at subsites -2 to +3", "data": [{"smiles": "O=C(O)[C@H]1O[C@@H](O[C@H]2[C@H](O)[C@H](O)[C@H](O[C@H]3[C@H](O)[C@H](O)[C@H](O[C@H]4[C@H](O)[C@H](O)[C@H](O[C@H]5[C@H](O)[C@H](O)C(O)O[C@@H]5C(=O)O)O[C@@H]4C(=O)O)O[C@@H]3C(=O)O)O[C@@H]2C(=O)O)[C@@H](O)[C@@H](O)[C@@H]1O", "note": "(stereo partly shown) [M5]", "values": [{"measurement": "X-ray crystal structure, 1.70 A", "result": "structure of the PyAly^H125A_Y223A-M5 complex presented the complete M5 substrate"}]}]}
